Experiments:
p300; p300-HA = molecular target: T1, p300; p300-HA (Homo sapiens, UniProt Q09472); assay: in vitro lactylation of recombinant human TFEB, anti-Kla western blot; type: biochemical; settings: acyl donor; acceptor protein TFEB (10 μg); immunoprecipitated p300-HA; 50 mM Tris-HCl pH 8.0, 30 °C, 1 h
T1 construct: gene EP300; HA-tagged p300 immunoprecipitated from transfected HEK293T cells

NDRG3 = molecular target: T2, NDRG3 (Homo sapiens, UniProt Q9UGV2); assay: isothermal titration calorimetry; intrinsic tryptophan fluorescence quenching; type: binding; settings: ITC 25 °C, 10 mM lactate into 0.5 mM NDRG3; Trp quenching with sodium lactate, 100 μM protein, 10 mM NaH2PO4 pH 7.5; non-covalent; used as positive control for TFEB
T2 construct: human NDRG3 in pGEX-5X-1, GST-tagged, expressed in E. coli BL21, glutathione-Sepharose
T2 sequence (Q9UGV2 whole entry): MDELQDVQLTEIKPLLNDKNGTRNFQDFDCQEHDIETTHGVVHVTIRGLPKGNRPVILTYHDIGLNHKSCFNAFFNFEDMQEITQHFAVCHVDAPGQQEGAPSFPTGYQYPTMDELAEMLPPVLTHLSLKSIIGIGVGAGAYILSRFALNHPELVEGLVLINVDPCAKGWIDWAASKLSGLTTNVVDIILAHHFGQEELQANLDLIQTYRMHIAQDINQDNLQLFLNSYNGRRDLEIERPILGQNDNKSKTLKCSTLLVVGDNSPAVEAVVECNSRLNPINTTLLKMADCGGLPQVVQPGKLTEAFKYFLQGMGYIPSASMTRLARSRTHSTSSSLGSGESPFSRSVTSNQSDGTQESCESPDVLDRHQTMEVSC

T1 sequence (Q09472 2-2414): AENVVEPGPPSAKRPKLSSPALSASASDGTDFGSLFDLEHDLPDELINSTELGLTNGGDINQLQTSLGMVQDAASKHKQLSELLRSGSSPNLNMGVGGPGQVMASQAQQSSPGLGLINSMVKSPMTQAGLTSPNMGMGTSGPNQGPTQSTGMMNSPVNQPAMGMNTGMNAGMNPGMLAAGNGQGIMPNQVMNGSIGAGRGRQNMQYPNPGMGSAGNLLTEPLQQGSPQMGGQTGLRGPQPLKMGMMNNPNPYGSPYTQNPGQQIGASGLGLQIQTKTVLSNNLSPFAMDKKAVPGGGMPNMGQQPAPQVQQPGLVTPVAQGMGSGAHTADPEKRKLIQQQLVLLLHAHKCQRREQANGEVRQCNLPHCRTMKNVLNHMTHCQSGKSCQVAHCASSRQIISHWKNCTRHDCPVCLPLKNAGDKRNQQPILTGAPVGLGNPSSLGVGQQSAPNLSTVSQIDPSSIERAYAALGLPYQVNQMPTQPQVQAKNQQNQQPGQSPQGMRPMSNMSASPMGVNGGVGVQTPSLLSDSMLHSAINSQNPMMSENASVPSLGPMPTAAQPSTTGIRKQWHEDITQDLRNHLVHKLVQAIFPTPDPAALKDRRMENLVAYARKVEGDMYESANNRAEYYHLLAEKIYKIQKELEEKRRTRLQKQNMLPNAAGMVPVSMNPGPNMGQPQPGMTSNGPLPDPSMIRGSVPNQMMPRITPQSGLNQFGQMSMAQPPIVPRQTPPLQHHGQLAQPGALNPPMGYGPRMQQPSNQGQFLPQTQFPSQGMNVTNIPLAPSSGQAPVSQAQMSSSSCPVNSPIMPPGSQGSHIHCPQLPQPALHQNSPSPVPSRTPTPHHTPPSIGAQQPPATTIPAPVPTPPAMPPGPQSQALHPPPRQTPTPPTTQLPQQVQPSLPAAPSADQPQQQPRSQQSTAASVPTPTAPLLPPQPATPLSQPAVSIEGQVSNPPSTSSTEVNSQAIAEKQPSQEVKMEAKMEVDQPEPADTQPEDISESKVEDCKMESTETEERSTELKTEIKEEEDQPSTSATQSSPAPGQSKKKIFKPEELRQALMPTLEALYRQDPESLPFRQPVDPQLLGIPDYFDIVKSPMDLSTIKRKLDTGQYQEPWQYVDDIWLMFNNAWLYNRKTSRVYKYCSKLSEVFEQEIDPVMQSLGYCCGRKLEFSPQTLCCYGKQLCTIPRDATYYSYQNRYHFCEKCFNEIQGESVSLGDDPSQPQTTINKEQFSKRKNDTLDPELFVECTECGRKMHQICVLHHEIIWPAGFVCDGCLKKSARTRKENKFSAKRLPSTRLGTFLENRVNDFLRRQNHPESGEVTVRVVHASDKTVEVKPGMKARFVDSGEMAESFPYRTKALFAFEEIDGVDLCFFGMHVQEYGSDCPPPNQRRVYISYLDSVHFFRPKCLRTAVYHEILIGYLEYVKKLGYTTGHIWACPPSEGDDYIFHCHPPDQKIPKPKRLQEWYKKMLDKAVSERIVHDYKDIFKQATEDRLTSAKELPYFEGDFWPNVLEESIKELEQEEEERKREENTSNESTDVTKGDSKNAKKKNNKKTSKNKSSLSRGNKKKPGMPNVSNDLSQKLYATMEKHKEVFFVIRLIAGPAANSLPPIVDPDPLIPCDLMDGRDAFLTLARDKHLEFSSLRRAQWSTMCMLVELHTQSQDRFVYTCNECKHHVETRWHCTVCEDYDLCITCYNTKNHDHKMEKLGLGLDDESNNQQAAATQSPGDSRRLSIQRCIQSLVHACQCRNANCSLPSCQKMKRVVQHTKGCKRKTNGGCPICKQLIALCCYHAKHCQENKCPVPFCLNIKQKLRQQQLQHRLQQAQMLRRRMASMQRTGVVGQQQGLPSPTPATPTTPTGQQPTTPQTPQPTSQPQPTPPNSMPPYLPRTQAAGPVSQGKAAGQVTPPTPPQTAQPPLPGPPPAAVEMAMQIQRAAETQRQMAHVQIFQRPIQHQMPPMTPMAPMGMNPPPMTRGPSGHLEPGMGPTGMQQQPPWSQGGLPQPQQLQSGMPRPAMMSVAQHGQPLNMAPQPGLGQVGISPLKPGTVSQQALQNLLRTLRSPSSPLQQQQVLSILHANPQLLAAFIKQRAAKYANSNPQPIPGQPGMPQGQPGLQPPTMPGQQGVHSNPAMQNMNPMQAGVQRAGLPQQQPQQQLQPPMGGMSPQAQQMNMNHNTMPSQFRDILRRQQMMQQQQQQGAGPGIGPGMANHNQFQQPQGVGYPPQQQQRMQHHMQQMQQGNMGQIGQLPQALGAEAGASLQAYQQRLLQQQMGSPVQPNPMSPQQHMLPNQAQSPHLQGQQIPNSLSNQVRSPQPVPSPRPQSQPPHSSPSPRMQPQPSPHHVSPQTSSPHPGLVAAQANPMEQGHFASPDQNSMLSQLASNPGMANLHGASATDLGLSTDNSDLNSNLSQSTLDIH

Structure (SMILES)	in vitro lactylation of recombinant human TFEB, anti-Kla western blot (p300; p300-HA)	isothermal titration calorimetry; intrinsic tryptophan fluorescence quenching (NDRG3)
C[C@H](O)C(=O)SCCNC(=O)CCNC(=O)[C@H](O)C(C)(C)COP(=O)(O)OP(=O)(O)OC[C@H]1O[C@@H](n2cnc3c(N)ncnc32)[C@H](O)[C@@H]1OP(=O)(O)O [L-lactyl-CoA]	lactylation was observed in TFEB incubated with p300-HA instead of transferase-inactivated p300-WY-HA	–
C[C@H](O)C(=O)O [lactate]	–	sodium lactate resulted in the fixed tryptophan fluorescence quenching of purified NDRG3
